The results in this text go back to patent US9382197B2, “Substituted hydroxamic acids and uses thereof” (Millennium Pharmaceuticals, Inc., priority 2010, dated 2016).

The target in the first assay is T1, purified human HDAC6 (Homo sapiens, UniProt Q9UBN7).
T1 construct: purchased BPS Bioscience 5006
T1 sequence (Q9UBN7 1-1215): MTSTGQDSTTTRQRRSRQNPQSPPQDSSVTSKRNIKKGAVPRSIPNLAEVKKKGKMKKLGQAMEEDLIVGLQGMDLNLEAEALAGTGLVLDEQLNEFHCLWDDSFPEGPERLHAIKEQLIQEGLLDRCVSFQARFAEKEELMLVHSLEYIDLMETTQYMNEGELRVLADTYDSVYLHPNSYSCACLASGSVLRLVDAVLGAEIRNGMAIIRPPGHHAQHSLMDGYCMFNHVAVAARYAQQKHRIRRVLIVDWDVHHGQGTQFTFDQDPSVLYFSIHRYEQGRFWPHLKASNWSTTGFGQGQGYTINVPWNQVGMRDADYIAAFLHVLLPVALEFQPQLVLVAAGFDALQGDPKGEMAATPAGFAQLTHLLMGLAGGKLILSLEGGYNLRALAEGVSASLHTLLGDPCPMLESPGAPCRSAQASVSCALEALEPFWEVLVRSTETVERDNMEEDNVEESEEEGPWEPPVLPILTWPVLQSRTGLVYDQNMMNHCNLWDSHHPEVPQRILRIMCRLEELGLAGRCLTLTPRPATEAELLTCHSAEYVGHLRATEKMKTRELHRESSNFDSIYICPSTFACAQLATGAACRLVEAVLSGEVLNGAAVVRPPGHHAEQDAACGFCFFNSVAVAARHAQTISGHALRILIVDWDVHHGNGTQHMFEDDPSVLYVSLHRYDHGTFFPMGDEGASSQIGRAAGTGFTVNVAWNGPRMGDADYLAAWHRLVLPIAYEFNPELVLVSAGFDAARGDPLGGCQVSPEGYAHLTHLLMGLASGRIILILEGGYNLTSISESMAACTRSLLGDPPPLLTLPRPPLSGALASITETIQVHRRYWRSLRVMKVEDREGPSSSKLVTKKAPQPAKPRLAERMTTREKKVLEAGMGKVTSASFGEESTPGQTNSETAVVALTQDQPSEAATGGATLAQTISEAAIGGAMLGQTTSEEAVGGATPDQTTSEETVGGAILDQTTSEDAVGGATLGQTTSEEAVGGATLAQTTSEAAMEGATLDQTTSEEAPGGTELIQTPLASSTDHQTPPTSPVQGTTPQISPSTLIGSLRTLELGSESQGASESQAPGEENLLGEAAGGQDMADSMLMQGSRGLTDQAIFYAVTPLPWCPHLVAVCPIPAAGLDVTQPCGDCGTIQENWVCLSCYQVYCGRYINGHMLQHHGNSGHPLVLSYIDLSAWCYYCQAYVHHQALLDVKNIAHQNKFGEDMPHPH
Briefly: HDAC6 Enzyme Assay. Particulars: bin: greater than 1 μM. The format is biochemical. The method, boiled down:
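Deacetylated product quantified after trypsin digestion as released AMC (340/460 nm), following a 1 h, 30 °C reaction of human HDAC6 with Ac-RGK(Ac)-AMC peptide, quenched by trichostatin A. IC50 derived from DMSO-normalized curves.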
Take `COc1ccccc1CC(=O)NC(C)c1ccc(C(=O)NO)cc1` (centres unmarked) [Compound I-34, N-hydroxy-4-(1-{[(2-methoxyphenyl)acetyl]amino}ethyl)benzamide]: the IC50 was above 1000 nM.

In turn, `CC(C)C(=O)NC(C)c1ccc(C(=O)NO)cc1` (centres unmarked) [Compound I-36, N-hydroxy-4-[1-(isobutyrylamino)ethyl]benzamide] displayed a 50% inhibitory concentration (IC50) above 1000 nM.

For `CC(NC(=O)c1ccccc1C(F)(F)F)c1cccc(C(=O)NO)c1` (centres unmarked) [Compound I-57, N-(1-{3-[(hydroxyamino)carbonyl]phenyl}ethyl)-2-(trifluoromethyl)benzamide], the half-maximal inhibitory concentration (IC50) was above 1000 nM.

For the compound `CC(NC(=O)c1cc2oc(-c3ccccc3)cc2n1C)c1cccc(C(=O)NO)c1` (centres unmarked) [Compound I-180, N-(1-{3-[(hydroxyamino)carbonyl]phenyl}ethyl)-4-methyl-2-phenyl-4H-furo[3,2-b]pyrrole-5-carboxamide], the IC50 is above 1000 nM.

Compound `CC(C)C(NC(=O)c1cc(C(F)(F)F)ccc1C(F)(F)F)c1ccc(C(=O)NO)cc1` (centres unmarked) [Compound I-155, N-(1-{4-[(hydroxyamino)carbonyl]phenyl}-2-methylpropyl)-2,5-bis(trifluoromethyl)benzamide] had an IC50 above 1000 nM.

As for `Cc1c(C(=O)NC(C)c2cccc(C(=O)NO)c2)cnn1-c1ccccc1` (centres unmarked) [Compound I-257, N-(1-{3-[(hydroxyamino)carbonyl]phenyl}ethyl)-5-methyl-1-phenyl-1H-pyrazole-4-carboxamide], the IC50 is above 1000 nM.

The same assay, now with this note: purified human HDAC6, substrate Ac-Arg-Gly-Lys(Ac)-AMC, 1 hour at 30° C.; reported as bins.
In turn, `CC(C)C(NC(=O)c1ccc(C(C)(C)C)cc1)c1ccc(C(=O)NO)cc1` (centres unmarked) [Compound I-192, 4-tert-butyl-N-(1-{4-[(hydroxyamino)carbonyl]phenyl}-2-methylpropyl)benzamide] had an IC50 of 100 to 500 nM.

In the case of `CC(NC(=O)c1ccc(-n2cccc2)cc1)c1ccc(C(=O)NO)cc1` (centres unmarked) [Compound I-63, N-(1-{4-[(hydroxyamino)carbonyl]phenyl}ethyl)-4-(1H-pyrrol-1-yl)benzamide], the 50% inhibitory concentration (IC50) was below 100 nM.

Regarding `C[C@@H](NC(=O)Nc1cccc2ccccc12)c1ccc(C(=O)NO)cc1` [Compound I-527, N-hydroxy-4-((1R)-1-{[(1-naphthylamino)carbonyl]amino}ethyl)benzamide], the half-inhibitory concentration (IC50) is below 100 nM.

In turn, `CC(NS(=O)(=O)c1cc2ccccc2s1)c1ccc(C(=O)NO)cc1` (centres unmarked) [Compound I-369, 4-{1-[(1-benzothien-2-ylsulfonyl)amino]ethyl}-N-hydroxybenzamide] had a half-inhibitory concentration (IC50) of 100 to 500 nM.

Turning to `CC(C)C(NC(=O)c1ccc2nsnc2c1)c1ccc(C(=O)NO)cc1` (centres unmarked) [Compound I-135, N-(1-{4-[(hydroxyamino)carbonyl]phenyl}-2-methylpropyl)-2,1,3-benzothiadiazole-5-carboxamide], the concentration for half-maximal inhibition (IC50) is below 100 nM.

`Cc1ccc(NC(=O)NC(C)c2ccc(C(=O)NO)cc2)cc1Cl` (centres unmarked) [Compound I-103, 4-[1-({[(3-chloro-4-methylphenyl)amino]carbonyl}amino)ethyl]-N-hydroxybenzamide]: the half-inhibitory concentration (IC50) is below 100 nM.

In turn, `CC(C)(C)c1ccc(C(=O)NC(c2ccc(C(=O)NO)cc2)C(C)(C)C)cc1` (centres unmarked) [Compound I-377, 4-tert-butyl-N-(1-{4-[(hydroxyamino)carbonyl]phenyl}-2,2-dimethylpropyl)benzamide] displayed an IC50 of 100 to 500 nM.

Take `CC(C)(C)C(NC(=O)c1cc2ccccc2o1)c1ccc(C(=O)NO)cc1` (centres unmarked) [Compound I-4, N-(1-{4-[(hydroxyamino)carbonyl]phenyl}-2,2-dimethylpropyl)-1-benzofuran-2-carboxamide]: the IC50 is below 100 nM.

In turn, `Cc1cc(C(=O)NC(C)c2cccc(C(=O)NO)c2)nn1C` (centres unmarked) [Compound I-84, N-(1-{3-[(hydroxyamino)carbonyl]phenyl}ethyl)-1,5-dimethyl-1H-pyrazole-3-carboxamide] came in with an IC50 of 100 to 500 nM.

In turn, `CC(NC(=O)c1ccc(-c2ccccc2)cc1)c1cccc(C(=O)NO)c1` (centres unmarked) [Compound I-142, N-(1-{3-[(hydroxyamino)carbonyl]phenyl}ethyl)biphenyl-4-carboxamide] came in with a 50% inhibitory concentration (IC50) of 100 to 500 nM.

In the case of `CCC[C@@H](NC(=O)C12CC3CC(CC(C3)C1)C2)c1ccc(C(=O)NO)cc1` [Compound I-15, N-((1R)-1-{4-[(hydroxyamino)carbonyl]phenyl}butyl)adamantane-1-carboxamide], the half-maximal inhibitory concentration (IC50) is below 100 nM.

Compound `CC(C)C(NC(=O)c1cc(C(F)(F)F)cc(C(F)(F)F)c1)c1ccc(C(=O)NO)cc1` (centres unmarked) [Compound I-173, N-(1-{4-[(hydroxyamino)carbonyl]phenyl}-2-methylpropyl)-3,5-bis(trifluoromethyl)benzamide] came in with an IC50 of 100 to 500 nM.

`CC(C)C(NC(=O)c1cnccn1)c1ccc(C(=O)NO)cc1` (centres unmarked) [Compound I-203, N-(1-{4-[(hydroxyamino)carbonyl]phenyl}-2-methylpropyl)pyrazine-2-carboxamide]: the IC50 was in the range of 100 to 500 nM.

In the case of `CC(NC(=O)c1c2c(nn1C)CCCC2)c1ccc(C(=O)NO)cc1` (centres unmarked) [Compound I-114, N-(1-{4-[(hydroxyamino)carbonyl]phenyl}ethyl)-2-methyl-4,5,6,7-tetrahydro-2H-indazole-3-carboxamide], the IC50 lay in the range of 100 to 500 nM.

`CC(NC(=O)Nc1ccc2c(c1)OCO2)c1ccc(C(=O)NO)cc1` (centres unmarked) [Compound I-71, 4-(1-{[(1,3-benzodioxol-5-ylamino)carbonyl]amino}ethyl)-N-hydroxybenzamide] registered an IC50 below 100 nM.

As to `Cc1cc(C(=O)NC(c2ccc(C(=O)NO)cc2)C(C)C)c(C)o1` (centres unmarked) [Compound I-252, N-(1-{4-[(hydroxyamino)carbonyl]phenyl}-2-methylpropyl)-2,5-dimethyl-3-furamide], the concentration for half-maximal inhibition (IC50) is 100 to 500 nM.

Turning to `CC(NC(=O)Nc1ccc(OC(F)(F)F)cc1)c1ccc(C(=O)NO)cc1` (centres unmarked) [Compound I-141, N-hydroxy-4-{1-[({[4-(trifluoromethoxy)phenyl]amino}carbonyl)amino]ethyl}benzamide], the half-inhibitory concentration (IC50) was below 100 nM.

As for `CC(NC(=O)C(C)(C)C)c1ccc(C(=O)NO)cc1` (centres unmarked) [Compound I-59, 4-{1-[(2,2-dimethylpropanoyl)amino]ethyl}-N-hydroxybenzamide], the IC50 is below 100 nM.

The compound `CC(C)[C@@H](Nc1nc(C(F)(F)F)cs1)c1ccc(C(=O)NO)cc1` [Compound I-529, N-hydroxy-4-((1R)-2-methyl-1-{[4-(trifluoromethyl)-1,3-thiazol-2-yl]amino}propyl)benzamide] registered a concentration for half-maximal inhibition (IC50) below 100 nM.

For the compound `CCC[C@@H](NC(=O)NC(C)(C)C)c1ccc(C(=O)NO)cc1` [Compound I-380, 4-((1R)-1-{[(tert-butylamino)carbonyl]amino}butyl)-N-hydroxybenzamide], the concentration for half-maximal inhibition (IC50) was 100 to 500 nM.

`CC(NC(=O)C1C(C)(C)C1(C)C)c1ccc(C(=O)NO)cc1` (centres unmarked) [Compound I-372, N-hydroxy-4-(1-{[(2,2,3,3-tetramethylcyclopropyl)carbonyl]amino}ethyl)benzamide] came in with an IC50 of 100 to 500 nM.

`C[C@@H](NC(=O)c1cccn1C)c1ccc(C(=O)NO)cc1` [Compound I-102, N-((1R)-1-{4-[(hydroxyamino)carbonyl]phenyl}ethyl)-1-methyl-1H-pyrrole-2-carboxamide] returned an IC50 below 100 nM.

Compound `CC(NC(=O)c1cc2ccccc2n1C)c1cccc(C(=O)NO)c1` (centres unmarked) [Compound I-219, N-(1-{3-[(hydroxyamino)carbonyl]phenyl}ethyl)-1-methyl-1H-indole-2-carboxamide] registered an IC50 of 100 to 500 nM.

Compound `CCC[C@@H](NC(=O)c1cc2ccccc2n1C)c1ccc(C(=O)NO)cc1` [Compound I-106, N-((1R)-1-{4-[(hydroxyamino)carbonyl]phenyl}butyl)-1-methyl-1H-indole-2-carboxamide] yielded an IC50 below 100 nM.

Turning to `Cc1ccc2[nH]c(C(=O)NC(c3ccc(C(=O)NO)cc3)C(C)(C)C)cc2c1` (centres unmarked) [Compound I-129, N-(1-{4-[(hydroxyamino)carbonyl]phenyl}-2,2-dimethylpropyl)-5-methyl-1H-indole-2-carboxamide], the half-maximal inhibitory concentration (IC50) was below 100 nM.

Consider `CC(NC(=O)C1(c2ccc(Cl)cc2)CCC1)c1ccc(C(=O)NO)cc1` (centres unmarked) [Compound I-110, 4-[1-({[1-(4-chlorophenyl)cyclobutyl]carbonyl}amino)ethyl]-N-hydroxybenzamide], for which the IC50 was below 100 nM.
